This is an account of results in patent US11674959B2, “Methods for identifying and preparing pharmaceutical agents for activating Tie1 and/or Tie2 receptors” (The Johns Hopkins University, priority 2017, dated 2023).

The subject of experiment [1] is Erk1/2. The experiment is described as follows: Western blot of MEC lysates: Erk1/2 phosphorylation. It is filed as cell-based, human. To be noted: all tested conditions. The method, then:
(§1) To investigate the effects of the integrin inhibitor AXT107 on Tie2 signaling, confluent monolayers of microvascular endothelial cells (MECs) on fibronectin-coated dishes were treated with various concentrations of AXT107 followed by exposure to the Tie2 ligands Ang1 or Ang2.
(§2) Human dermal microvascular endothelial cells (Lonza) were maintained at 37° C. and 5% CO2 in EBM-2MV medium (Lonza) and used between passages two through seven. Where applicable, cells were serum starved in EBM-2 medium (Lonza) with no supplements. For FITC-Dextran permeability assays phenol red-free media were used to avoid auto-fluorescence. […]
(§3) For Ang1/2 signaling investigations, cell culture dishes (10 cm diameter) were coated with 5 μg/ml fibronectin (FN1; Sigma-Aldrich, St. Louis, Mo.) for two hours at 37° C. […] Specific proteins were identified by Western blot, using the following primary antibodies: Cell Signaling—phospho-Tie2 (Y992) (Cat #: 4221), Tie2 (Cat #: 7403), phospho-Stat3 (Y705) (Cat #: 4113), Stat3 (Cat #: 4904), phospho-Akt (S473) (Cat #: 4058), Akt (Cat #: 9272), phospho-p44/42 MAPK (T202/Y204) (Cat #: 4370), p44/42 MAPK (Cat #: 4695); BD Transduction Laboratories—β1 integrin (Cat #: 610467); Millipore—α5 integrin (Cat #: AB1928) and detected with HRP-conjugated goat anti-rabbit and sheep anti-mouse secondary antibodies (GE healthcare).
(In general: In western blotting, separated proteins are transferred to a membrane and probed.)

Experiment [2] relates to Tie2. Nature of the experiment: Tie2 immunoprecipitation from fractionated MEC lysates, blotted for phospho-Tie2. It is filed as cell-based, human. Particulars: Ang2 with or without AXT107; soluble vs insoluble fractions. On the procedure:
Next, experiments were performed to determine whether or not relocation of Tie2 to the insoluble fraction was important for Tie2's activation by Ang2. Tie2 was immunoprecipitated from fractionated MEC lysates exposed to Ang2 with or without AXT107 and then immunoblotted for phospho-Tie2.
(§4) The isolation of Triton X-100 soluble and insoluble fractions was performed using modifications to previously-described procedures (see, e.g., Lampugnani et al., J Cell Biol. 1995; 129(1):203-217). FN1-coated six-well plates were seeded with 2.5×10^6 cells and cultured for forty-eight hours, as described above. The cultures were then serum starved for ninety minutes in EBM-2 media, treated with 100 μM AXT107 or DMSO vehicle, and fifteen minutes with 1 mM sodium vanadate. The cells were then stimulated with either 100 ng/ml VEGFA, 400 ng/ml Ang2, or PBS for fifteen minutes. The plates were then transferred to ice and washed twice with cold dPBS containing Ca^2+ and Mg^2+ and twice with EBM-2 media. The media was then removed and the cells incubated for thirty minutes on ice, at 4° C. in 200 μl of Triton X-100 extraction buffer (10 mM Tris-HCl, pH 7.5; 150 mM NaCl; 2 mM CaCl2; 1% NP-40; 1% […]; and a protease inhibitor cocktail (Cell Signaling, Cat #: 5871)) with occasional agitation. […] Samples were analyzed by western blot as described above. […]

Experiment [3] has as its target T1, α5 and β1 integrin subunits (Homo sapiens, UniProt P05556+P08648).
T1 construct: host or cells: human dermal microvascular endothelial cells (MECs)
The experiment is described as follows: Duolink protein interaction analysis of α5 and β1 integrin in MEC monolayers. It is filed as cell-based. To be noted: 100 μM AXT107 compared to vehicle. The method, then: Additionally, changes in the interaction between the α5 and β1 subunits were further investigated using Duolink™ technology which can visualize individual interactions between α5 and β1 integrin subunits as distinct spots by fluorescence microscopy.
Glass bottom, 96-well plates were coated with FN1, seeded with MECs, as described above for the immunofluorescence experiments. After growing for forty-eight hours, cells were serum starved for three hours, treated with 100 μM AXT107 or DMSO vehicle for ninety minutes, washed twice with dPBS containing Ca^2+ and Mg^2+, and fixed in 10% neutral buffered formalin. Cells were blocked in 5% normal goat serum; 0.3% Triton X-100 in dPBS containing Ca^2+ and Mg^2+ for one hour and incubated overnight at 4° C. with rabbit anti-α5 integrin and mouse anti-β1 integrin antibodies in PBS containing Ca^2+ and Mg^2+ with 1% BSA and 0.1% Triton X-100. Interaction spots were developed using DUOLINK green detection reagent according to the manufacturer's instructions and detected using the BD pathway 855 system.

For experiment [4], the target named is T2, Tie2 / α5 integrin (Homo sapiens, UniProt P08648).
T2 construct: host or cells: human dermal microvascular endothelial cells (MECs)
Nature of the experiment: Tie2 immunoprecipitation from fractionated lysates, blotted for α5 integrin. It is filed as cell-based. Particulars: peptide-treated insoluble fraction; with 200 ng/ml Ang2 or no growth factor. On the procedure:
Finally, it was determined whether or not the α5 integrin subunit remains complexed with Tie2 following its disassociation with β1 integrin.
as §4, with “agitation. The extraction buffer was gently collected and centrifuged at 12,000×g for five minutes.” for “agitation.”

Experiment [5] relates to STAT3. Nature of the experiment: Western blot of MEC lysates: STAT3 phosphorylation. It is filed as cell-based, human. To be noted: Ang2 and AXT107 treatment. On the procedure:
as §1, §2, §3

T1 sequence (P08648 42-894 limits assumed): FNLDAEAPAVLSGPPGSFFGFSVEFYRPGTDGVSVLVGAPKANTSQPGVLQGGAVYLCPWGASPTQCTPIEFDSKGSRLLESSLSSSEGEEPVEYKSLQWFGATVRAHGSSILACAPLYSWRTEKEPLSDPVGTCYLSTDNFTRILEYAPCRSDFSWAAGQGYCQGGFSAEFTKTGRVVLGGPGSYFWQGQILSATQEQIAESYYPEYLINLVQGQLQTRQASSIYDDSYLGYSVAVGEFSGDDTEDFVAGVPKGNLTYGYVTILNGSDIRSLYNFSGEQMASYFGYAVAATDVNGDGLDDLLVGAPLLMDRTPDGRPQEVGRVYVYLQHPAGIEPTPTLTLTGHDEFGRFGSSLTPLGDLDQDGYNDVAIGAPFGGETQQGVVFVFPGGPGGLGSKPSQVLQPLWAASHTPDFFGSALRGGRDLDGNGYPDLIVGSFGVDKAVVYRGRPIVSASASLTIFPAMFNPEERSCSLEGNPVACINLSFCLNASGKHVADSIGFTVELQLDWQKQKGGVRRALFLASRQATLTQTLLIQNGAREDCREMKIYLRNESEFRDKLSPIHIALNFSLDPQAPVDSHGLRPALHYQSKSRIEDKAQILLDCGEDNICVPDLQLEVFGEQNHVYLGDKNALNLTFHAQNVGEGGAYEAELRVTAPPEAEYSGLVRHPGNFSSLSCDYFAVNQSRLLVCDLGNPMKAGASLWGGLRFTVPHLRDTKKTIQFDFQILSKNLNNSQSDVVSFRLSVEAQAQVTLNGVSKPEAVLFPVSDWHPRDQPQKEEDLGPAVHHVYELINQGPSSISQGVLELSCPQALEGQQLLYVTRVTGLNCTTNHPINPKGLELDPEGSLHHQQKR
T1 sequence (P08648 895-1049 limits assumed): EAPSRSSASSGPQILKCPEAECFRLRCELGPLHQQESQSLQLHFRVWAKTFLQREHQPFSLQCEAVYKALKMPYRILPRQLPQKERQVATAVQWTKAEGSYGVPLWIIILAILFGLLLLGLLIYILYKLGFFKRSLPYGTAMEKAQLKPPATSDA
T1 sequence (P05556 21-798): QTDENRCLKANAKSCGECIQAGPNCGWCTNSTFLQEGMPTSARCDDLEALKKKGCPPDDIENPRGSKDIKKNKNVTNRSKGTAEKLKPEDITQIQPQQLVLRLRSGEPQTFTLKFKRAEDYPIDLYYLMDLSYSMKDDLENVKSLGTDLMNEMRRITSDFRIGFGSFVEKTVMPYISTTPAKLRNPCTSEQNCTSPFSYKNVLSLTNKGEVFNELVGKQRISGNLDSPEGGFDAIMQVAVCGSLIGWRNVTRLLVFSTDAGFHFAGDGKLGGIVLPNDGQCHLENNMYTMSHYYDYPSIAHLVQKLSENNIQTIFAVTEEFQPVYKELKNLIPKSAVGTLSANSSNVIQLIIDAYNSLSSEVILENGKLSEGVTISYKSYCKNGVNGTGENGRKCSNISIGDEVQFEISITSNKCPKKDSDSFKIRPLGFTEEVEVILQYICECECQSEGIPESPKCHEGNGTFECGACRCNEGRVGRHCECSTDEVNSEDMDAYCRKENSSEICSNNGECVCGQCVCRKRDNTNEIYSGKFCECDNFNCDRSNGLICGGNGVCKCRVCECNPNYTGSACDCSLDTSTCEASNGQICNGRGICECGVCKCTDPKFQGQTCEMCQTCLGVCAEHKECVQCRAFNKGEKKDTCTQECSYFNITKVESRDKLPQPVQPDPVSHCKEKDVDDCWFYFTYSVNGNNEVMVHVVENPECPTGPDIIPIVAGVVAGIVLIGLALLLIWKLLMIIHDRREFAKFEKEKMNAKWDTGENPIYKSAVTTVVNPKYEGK
T2 sequence (P08648 42-894 limits assumed): as the sequence (P08648 42-894 limits assumed) above
T2 sequence (P08648 895-1049 limits assumed): as the sequence (P08648 895-1049 limits assumed) above
T2 sequence (Q02763 23-1124 partner): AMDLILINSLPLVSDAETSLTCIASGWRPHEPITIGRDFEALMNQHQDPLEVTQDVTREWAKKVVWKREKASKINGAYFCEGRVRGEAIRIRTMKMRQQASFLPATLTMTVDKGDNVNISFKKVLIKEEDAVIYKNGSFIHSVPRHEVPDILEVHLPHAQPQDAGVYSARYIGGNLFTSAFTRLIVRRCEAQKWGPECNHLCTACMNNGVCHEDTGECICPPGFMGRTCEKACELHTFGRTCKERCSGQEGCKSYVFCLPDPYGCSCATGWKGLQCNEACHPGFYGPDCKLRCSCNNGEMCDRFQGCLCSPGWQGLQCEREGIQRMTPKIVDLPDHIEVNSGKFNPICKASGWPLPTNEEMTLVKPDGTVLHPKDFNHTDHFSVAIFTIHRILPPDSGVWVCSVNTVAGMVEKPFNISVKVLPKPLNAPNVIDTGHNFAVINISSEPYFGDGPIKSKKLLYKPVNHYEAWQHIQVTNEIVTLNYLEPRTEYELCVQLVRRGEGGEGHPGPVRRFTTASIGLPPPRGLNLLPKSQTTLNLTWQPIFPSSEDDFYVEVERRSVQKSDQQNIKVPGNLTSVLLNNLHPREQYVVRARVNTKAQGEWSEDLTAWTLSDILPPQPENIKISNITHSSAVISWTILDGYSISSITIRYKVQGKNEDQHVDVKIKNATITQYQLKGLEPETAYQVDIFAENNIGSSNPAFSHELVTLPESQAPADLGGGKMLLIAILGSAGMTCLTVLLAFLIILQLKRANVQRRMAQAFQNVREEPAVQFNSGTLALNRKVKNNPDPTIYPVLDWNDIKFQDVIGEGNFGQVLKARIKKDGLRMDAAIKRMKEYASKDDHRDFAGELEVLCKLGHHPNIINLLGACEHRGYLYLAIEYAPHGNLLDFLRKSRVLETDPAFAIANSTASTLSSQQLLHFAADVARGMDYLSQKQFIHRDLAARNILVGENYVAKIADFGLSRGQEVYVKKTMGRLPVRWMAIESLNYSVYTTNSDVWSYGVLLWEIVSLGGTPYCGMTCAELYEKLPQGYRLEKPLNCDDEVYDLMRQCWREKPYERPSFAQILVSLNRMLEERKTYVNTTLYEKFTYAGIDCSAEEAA

In the case of LRRFSTAPFAFIDINDVINF [AXT107], in experiment [1], the Erk1/2 phosphorylation result is on record as “remained constant in all tested conditions”. Besides, the “Tie2 phosphorylation by fraction” value in experiment [2] was “phosphorylation was observed only in the insoluble fractions of peptide-treated samples”. The “Interactions between α5 and β1 integrin subunits (Duolink)” value in experiment [3] is “significantly reduced”. Further, in experiment [4], the “α5 integrin complexed with Tie2” value is recorded as “α5 integrin was observed in the peptide-treated, insoluble fraction following immunoprecipitation of Tie2”. Moreover, the STAT3 phosphorylation entry in experiment [5] is “also increased”.
